Experiment [1] relates to EGF receptor tyrosine kinase. The settings on record: Fry et al., Science, 1994, 265, 1093; cited from earlier work.
For experiment [2], the system named is human naso-pharyngeal cancer cell line KB. Kind of experiment: in vitro inhibition of EGF-stimulated growth of human naso-pharyngeal cancer cell line KB (Test (b)). Type of experiment: cell-based. To be noted: 72 h, EGF 10 ng/ml, 3 days, MTT, read-out: IC50 in Test (b), inhibition of EGF-stimulated growth of KB cells. As for the experimental part: (b) An in vitro assay which determines the ability of a test compound to inhibit the EGF-stimulated growth of the human naso-pharyngeal cancer cell line KB.
KB cells were seeded into wells at a density of 1×10^4 -1.5×10^4 cells per well and grown for 24 hours in DMEM supplemented with 5% FCS (charcoal-stripped). Cell growth was determined after incubation for 3 days by the extent of metabolism of MTT tetrazolium dye to furnish a bluish colour. Cell growth was then determined in the presence of EGF (10 ng/ml) or in the presence of EGF (10 ng/ml) and a test compound at a range of concentrations. An IC50 value could then be calculated.

Experiment [3] has as its target T1, EGF receptor tyrosine kinase (Homo sapiens, UniProt P00533).
T1 construct: Receptor tyrosine kinase was obtained in partially purified form from A-431 cells; endogenous in cells; host or cells: A-431 cells (human vulval carcinoma), Triton X-100 solubilised membrane fraction
As to the kind of experiment: in vitro inhibition of the enzyme EGF receptor tyrosine kinase (Test (a)). To be noted: receptor tyrosine kinase from A-431 cells. Format: biochemical. As for the experimental part:
(a) An in vitro assay which determines the ability of a test compound to inhibit the enzyme EGF receptor tyrosine kinase. Receptor tyrosine kinase was obtained in partially purified form from A-431 cells (derived from human vulval carcinoma) by the procedures described below which are related to those described by Carpenter et al., J. Biol. Chem., 1979, 254, 4884, Cohen et al., J. Biol. Chem., 1982, 257, 1523 and by Braun et al., J. Biol. Chem., 1984, 259, 2051.
A-431 cells were grown to confluence using Dulbecco's modified Eagle's medium DMEM) containing 5% fetal calf serum (FCS). The obtained cells were homogenised in a hypotonic borate/EDTA buffer at pH 10.1. The homogenate was centrifuged at 400 g for 10 minutes at 0°-4° C. The supernatant was centrifuged at 25,000 g for 30 minutes at 0°-4° C. […]
The test compound/EGF mixture solution (5 μl) was added to the test enzyme solution (10 μl) and the mixture was incubated at 0°-4° C. for 30 minutes. […] Radioactivity present in the filter paper was measured using a liquid scintillation counter (Sequence A). […]
Receptor tyrosine kinase inhibition was calculated as follows: [formula]
The extent of inhibition was then determined at a range of concentrations of test compound to give an IC50 value.

Experiment [4] deals with another carcinoma which does not express EGF receptor tyrosine kinase. The settings on record: cited from earlier work.
The test system of experiment [5] is human mammary carcinoma which expresses EGF receptor tyrosine kinase. The settings on record: athymic nude mice; cited from earlier work.

T1 sequence (P00533 25-1210): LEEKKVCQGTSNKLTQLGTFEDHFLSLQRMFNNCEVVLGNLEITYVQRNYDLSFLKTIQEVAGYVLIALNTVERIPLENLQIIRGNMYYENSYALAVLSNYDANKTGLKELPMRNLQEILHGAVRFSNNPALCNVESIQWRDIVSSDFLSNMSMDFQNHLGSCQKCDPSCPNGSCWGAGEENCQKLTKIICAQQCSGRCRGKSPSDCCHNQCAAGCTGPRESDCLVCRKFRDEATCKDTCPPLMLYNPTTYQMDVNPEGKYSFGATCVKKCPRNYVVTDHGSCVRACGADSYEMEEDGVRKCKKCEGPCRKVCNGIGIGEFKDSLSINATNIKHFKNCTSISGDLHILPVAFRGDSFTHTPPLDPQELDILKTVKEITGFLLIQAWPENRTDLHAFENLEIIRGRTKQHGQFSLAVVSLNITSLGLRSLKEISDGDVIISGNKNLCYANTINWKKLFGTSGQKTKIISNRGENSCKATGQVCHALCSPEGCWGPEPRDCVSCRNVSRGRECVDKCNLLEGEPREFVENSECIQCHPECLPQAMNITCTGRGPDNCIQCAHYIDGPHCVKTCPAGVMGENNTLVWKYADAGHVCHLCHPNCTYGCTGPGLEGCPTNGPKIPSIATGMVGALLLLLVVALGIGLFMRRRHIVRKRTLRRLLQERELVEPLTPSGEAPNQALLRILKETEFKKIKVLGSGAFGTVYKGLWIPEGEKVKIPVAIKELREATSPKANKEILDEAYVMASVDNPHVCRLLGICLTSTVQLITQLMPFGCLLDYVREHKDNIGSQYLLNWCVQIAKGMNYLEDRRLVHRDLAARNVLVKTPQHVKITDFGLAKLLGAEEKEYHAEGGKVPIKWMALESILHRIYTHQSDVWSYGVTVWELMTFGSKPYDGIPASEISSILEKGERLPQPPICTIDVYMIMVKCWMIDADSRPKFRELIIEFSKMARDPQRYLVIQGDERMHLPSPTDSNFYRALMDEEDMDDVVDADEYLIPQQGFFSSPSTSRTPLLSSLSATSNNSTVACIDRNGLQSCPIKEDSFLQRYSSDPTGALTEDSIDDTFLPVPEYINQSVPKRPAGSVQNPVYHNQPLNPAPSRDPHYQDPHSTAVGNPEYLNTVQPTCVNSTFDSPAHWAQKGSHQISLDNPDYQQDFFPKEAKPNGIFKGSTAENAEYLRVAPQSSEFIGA
T1 sequence (P01133 971-1023 partner limits assumed): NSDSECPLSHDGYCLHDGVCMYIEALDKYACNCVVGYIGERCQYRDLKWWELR

Consider `COc1cc2ncnc(Nc3cccc(Br)c3)c2cc1OC` [4-(3-bromoanilino)-6,7-dimethoxyquinazoline], for which the “inhibition of EGF receptor tyrosine kinase (in words)” value in experiment [1] is reported as “highly potent inhibitor”. Turning to `Fc1ccc(Nc2ncnc3cc(-c4csc(CN5CCOCC5)c4)ccc23)cc1Cl` [Example 5, 4-(3-chloro-4-fluoroanilino)-7-(5-morpholinomethylthien-3-yl)quinazoline], the IC50 was determined as 120 nM in experiment [2] and 42 nM in experiment [3]. Consider `O=CN/C=C/c1cc(O)ccc1O` [erbstatin], for which, in experiment [4], the “effect on the growth of another carcinoma” value is “without effect”. Besides, in experiment [5], the “attenuation of growth of a transplanted human mammary carcinoma” value is “specifically attenuates the growth”.

The term IC50 denotes the concentration at which inhibition is half-maximal.
